Data set [1] concerns Bacillus cereus. Description: Antibacterial activity against Bacillus cereus B-3705 after 24 hrs by antibiotic disk assay. The format is functional.
Data set [2] concerns Escherichia coli. Nature of the data set: Antibacterial activity against Escherichia coli B-3704 after 24 hrs by antibiotic disk assay. The format is functional.
Data set [3] can be described thus: Toxicity in chick embryo up to 100 ug. The arrangement: species or system Gallus gallus. The conditions noted are these: chicken.

For `O=C/C=C/C=C/C=C/C=C/C=C/C=C/C=O`, the MIC in data set [1] stood at 10 µg; in data set [2] it was 50 µg. Besides, the Activity result in data set [3] is on record as “Non-toxic”.

Source of the values: ChEMBL document CHEMBL1158250, “(all trans)-2,4,6,8,10,12-tetradecahexene-1,14-dial, a new pigment from Conidiobolus paulus” (J Nat Prod, 1996).
